The test system of data set [1] is Mycobacterium tuberculosis standard strain H37Rv. The experiment in a line: Microplate Alamar Blue Assay (MABA), minimum inhibitory concentration. Format: cell-based. The following applies: for MIC: Mycobacterium tuberculosis; for in vitro anti-tuberculosis activity (in words): experimental data in Table 1.
Where [2] appears, read: H37Rv, 7H9 liquid medium, MABA, lowest drug concentration that prevented the color change (blue to pink), read-out: MIC.

In brackets after ≈: the same amount, converted by molar mass. Several values for one entry are separate records, joined by “and”; a condition that tells them apart may be missing. Identical values can stand only once. Counter-ions that a name gives are not always drawn. Like-named read-outs stand apart in the source and are kept apart here. Where only a bound is given, the exact number is not on record here.

In turn, `CCS(=O)(=O)N(C/C=C(\C)CCC=C(C)C)CCN.Cl` [XHJ-2-39, N-geranyl-N-(2-aminoethyl)ethylsulfonamide hydrochloride] gave a melting point of 103 to 106 °C. The MIC in data set [1] (setting [2]) was over 32 µg/mL.
Turning to `CC(C)=CCC/C(C)=C/CNCC(=O)NC1C2CC3CC(C2)CC1C3.Cl` (stereo not drawn) [XHJ-2-37, N-adamantan-2-yl-2-(3,7-dimethyl-oct-2,6-dienylamino)-acetamide hydrochloride], the melting point lay in the range of 168 to 172 °C. Moreover, in data set [1] (H37RV), the MIC is under 0.5 µg/mL. Also, the “in vitro anti-tuberculosis activity (in words)” value in data set [1] is reported as “good activity”.
Compound `CC(C)=CCC/C(C)=C/CNCCNC(c1ccccn1)c1ccccn1` [XHJ-5-14, N-(dipyridin-2-yl-methyl)-N′-(3,7-dimethyl-oct-2,6-dienyl)-ethane-1,2-diamine] came in with an MIC in data set [1] (H37RV) of 4 µg/mL (≈ 11 µM). For the same compound, in data set [1], the “in vitro anti-tuberculosis activity (in words)” value is “better activity”.
`CC(C)=CCC/C(C)=C/CN(CCN)C1C2CC3CC(C2)CC1C3` (stereo not drawn) [XHJ-3-45, N,N-(adamantan-2-yl)-(3,7-dimethyl-oct-2,6-dienyl)-ethane-1,2-diamine] yielded a melting point of 102 to 104 °C. For the same compound, the MIC in data set [1] (H37RV) is under 0.5 µg/mL. For the same compound, in data set [1], the “in vitro anti-tuberculosis activity (in words)” value was “better activity”.
Consider `CCS(=O)(=O)N(C/C=C(\C)CCC=C(C)C)CCNC1C2CC3CC(C2)CC1C3.Cl` (stereo not drawn) [XHJ-3-1, N-adamantan-2-yl-N′,N′-ethylsulfonyl-(3,7-dimethyl-oct-2,6-dienyl)-ethane-1,2-diamine hydrochloride], for which the melting point was 108 to 112 °C and 103 to 106 °C. The MIC in data set [1] (H37RV) was 6.96 µg/mL. The “in vitro anti-tuberculosis activity (in words)” value in data set [1] is “good activity”.
For the compound `NNC(=O)c1ccncc1` [INH, isoniazid, reference compound], in data set [1] (setting [2]), the MIC was found to be 0.05 µg/mL (≈ 0.365 µM).
Compound `C(CNC1C2CC3CC(C2)CC1C3)NC1CC1` (stereo not drawn) [XHJ-5-18, N-(adamantan-2-yl)-N′-cyclopropyl-ethane-1,2-diamine] came in with a melting point of 197 to 200 °C. Moreover, in data set [1] (setting [2]), the MIC is over 32 µg/mL.
Consider `CO[C@H]1/C=C/O[C@@]2(C)Oc3c(C)c(O)c4c(O)c(c(/C=N/N5CCN(C)CC5)c(O)c4c3C2=O)NC(=O)/C(C)=C\C=C\[C@H](C)[C@H](O)[C@@H](C)[C@@H](O)[C@@H](C)[C@H](OC(C)=O)[C@@H]1C` [RFP, rifampin, reference compound], for which, in data set [1] (setting [2]), the MIC worked out at 0.048 µg/mL (≈ 0.0583 µM).
The compound `CC(C)=CCC/C(C)=C/CN(CCNC1C2CC3CC(C2)CC1C3)S(=O)(=O)c1ccc(C)cc1.Cl` (stereo not drawn) [XHJ-3-3, N-adamantan-2-yl-N′,N′-p-toluenesulfonyl-(3,7-dimethyl-oct-2,6-dienyl)-ethane-1,2-diamine hydrochloride] displayed a melting point of 179 to 182 °C. For the same compound, the MIC in data set [1] (H37RV) stood at 3.76 µg/mL. The “in vitro anti-tuberculosis activity (in words)” value in data set [1] was “good activity”.
Regarding `CC(C)=CCC/C(C)=C/CN(CCN)S(=O)(=O)c1ccc(C)cc1.Cl` [XHJ-2-45, N-geranyl-N-(2-aminoethyl)-p-toluenesulfonamide hydrochloride], the melting point is 134 to 137 °C. Besides, in data set [1] (setting [2]), the MIC was found to be 31.5 µg/mL.
On to `COc1cc(C(=O)N(C/C=C(\C)CCC=C(C)C)CCNC2C3CC4CC(C3)CC2C4)cc(OC)c1OC` (stereo not drawn) [XHJ-3-29, N-adamantan-2-yl-N′,N′-(3,4,5-trimethoxybenzoyl)-(3,7-dimethyl-oct-2,6-dienyl)-ethane-1,2-diamine], for which the MIC in data set [1] (H37RV) came to 3.91 µg/mL (≈ 7.45 µM). In addition, in data set [1], the “in vitro anti-tuberculosis activity (in words)” value is reported as “good activity”.
Take `CC(C)=CCC/C(C)=C/CN(CCNC1C2CC3CC(C2)CC1C3)C(=O)/C=C(\C)CCC=C(C)C` (stereo not drawn) [XHJ-3-11, N-adamantan-2-yl-N′,N′-(3,7-dimethyl-oct-2,6-dienyl)-(3,7-dimethyl-oct-2,6-dienoyl)-ethane-1,2-diamine]: in data set [1] (H37RV), the MIC was over 32 µg/mL.
Compound `CCCCCCNCCNC1C2CC3CC(C2)CC1C3` (stereo not drawn) [XHJ-5-5, N-(adamantan-2-yl)-N′-hexyl-ethane-1,2-diamine dihydrochloride] had an MIC in data set [1] (H37RV) of 0.982 µg/mL. In data set [1], the “in vitro anti-tuberculosis activity (in words)” value is given as “better activity”.
In data set [1] (H37RV), `CC(C)=CCC/C(C)=C/CN(CCN(Cc1ccccc1)C1C2CC3CC(C2)CC1C3)Cc1ccccc1` (stereo not drawn) [XHJ-4-11, N,N-(adamantan-2-yl)-benzyl-N′,N′-(3,7-dimethyl-oct-2,6-dienyl)-benzyl-ethane-1,2-diamine] came in with an MIC of 30.8 µg/mL (≈ 60.3 µM).
For the compound `CCCCCCCCCCC(=O)N(C/C=C(\C)CCC=C(C)C)CCNC1C2CC3CC(C2)CC1C3` (stereo not drawn) [XHJ-3-31, N-adamantan-2-yl-N′,N′-undecanoyl-(3,7-dimethyl-oct-2,6-dienyl)-ethane-1,2-diamine], inhibition of growth in data set [1] (H37RV) (MIC) required 2.84 µg/mL (≈ 5.7 µM). Further, the “in vitro anti-tuberculosis activity (in words)” value in data set [1] is reported as “good activity”.
`CCCCCCCCNCCNC1C2CC3CC(C2)CC1C3` (stereo not drawn) [XHJ-5-3, N-(adamantan-2-yl)-N′-octyl-ethane-1,2-diamine dihydrochloride] gave an MIC in data set [1] (H37RV) of 0.986 µg/mL. The “in vitro anti-tuberculosis activity (in words)” value in data set [1] was “better activity”.
In turn, `CC(C)=CCC/C(C)=C/CNCCNC(c1ccccc1)c1cccnc1` (stereo not drawn) [XHJ-5-8, N-(phenyl-pyridin-3-yl-methyl)-N′-(3,7-dimethyl-oct-2,6-dienyl)-ethane-1,2-diamine] returned a minimum inhibitory concentration (MIC) in data set [1] (H37RV) of 16 µg/mL (≈ 44 µM). Besides, the “in vitro anti-tuberculosis activity (in words)” value in data set [1] is reported as “better activity”.
As for `CCS(=O)(=O)NCCNC1C2CC3CC(C2)CC1C3` (stereo not drawn) [XHJ-3-46, N-(adamantan-2-yl)-N′-ethylsulfonyl-ethane-1,2-diamine], in data set [1] (setting [2]), the MIC was over 32 µg/mL.
For `CCCCCCNCCNC1C2CC3CC(C2)CC1C3` (stereo not drawn) (as salt: hydrochloride) [XHJ-5-5, N-(adamantan-2-yl)-N′-hexyl-ethane-1,2-diamine dihydrochloride], the melting point lay within 212 to 216 °C.
Compound `CC(C)=CCC/C(C)=C/CN(CCN(C(=O)c1c[nH]c2ccccc12)C1C2CC3CC(C2)CC1C3)C(=O)c1c[nH]c2ccccc12` (stereo not drawn) [XHJ-3-15, N,N-adamantan-2-yl-(3-indolylformyl)-N′,N′-(3,7-dimethyl-oct-2,6-dienyl)-(3-indolylformyl)-ethane-1,2-diamine] returned a melting point of 248 to 252 °C. The compound further gave an MIC in data set [1] (H37RV) of over 32 µg/mL.
Take `CCCCCCCCNCCNC1C2CC3CC(C2)CC1C3` (stereo not drawn) (as salt: hydrochloride) [XHJ-5-3, N-(adamantan-2-yl)-N′-octyl-ethane-1,2-diamine dihydrochloride]: the melting point was in the range of 224 to 226 °C.
With `CC(C)=CCC/C(C)=C/C(=O)NCCNC1C2CC3CC(C2)CC1C3.Cl` (stereo not drawn) [XHJ-2-32, 3,7-dimethyl-oct-2,6-dienoic acid [2-(adamantan-2-yl-amino)ethyl]amide hydrochloride], the melting point is 150 to 164 °C. For the same compound, the MIC in data set [1] (H37RV) stood at 7.75 µg/mL. For the same compound, the “in vitro anti-tuberculosis activity (in words)” value in data set [1] was “good activity”.
`CC(C)=CCC/C(C)=C/CN(CCNC1C2CC3CC(C2)CC1C3)C(=O)CCc1c[nH]c2ccccc12` (stereo not drawn) [XHJ-3-27, N-adamantan-2-yl-N′,N′-(3-indolylpropionyl)-(3,7-dimethyl-oct-2,6-dienyl)-ethane-1,2-diamine] yielded an MIC in data set [1] (H37RV) of 1.96 µg/mL (≈ 3.91 µM). The “in vitro anti-tuberculosis activity (in words)” value in data set [1] was “good activity”.
`CCCCCCCCN(C/C=C(\C)CCC=C(C)C)CCN(CCCCCCCC)C1C2CC3CC(C2)CC1C3` (stereo not drawn) [XHJ-4-15, N,N-(adamantan-2-yl)-octyl-N′,N′-(3,7-dimethyl-oct-2,6-dienyl)-octyl-ethane-1,2-diamine]: in data set [1] (H37RV), the MIC was over 32 µg/mL.

Usually MIC stands for the lowest concentration that inhibits growth of the organism. The term melting point denotes the temperature of the solid-liquid transition.

The record behind these values is patent US20220089521A1, “ETHYLENEDIAMINE COMPOUND AND USE THEREOF” (priority 2018, published 2022).
